Experimental findings from patent US9469854B2, “Pharmaceutical composition for treating liver diseases” (Academia Sinica, priority 2014, dated 2016) are described below.

Format in all cases: cell-based, human
The subject of series [1] is miR-21-3p. Description: qRT-PCR microRNA assay in HepG2 cells. Conditions: HepG2, 40 μM berberine. As to the method: (§1) The human HepG2 cells and HEK 293T cells used in the following examples were originally obtained from the American Tissue Culture Collection (ATCC, USA). The human HCC HepG2 cell line was cultured in Minimum Essential Medium Eagle (Sigma) supplemented with 10% fetal bovine serum (FBS) (Invitrogen), 2.2 g/L of sodium bicarbonate (Sigma), 0.1 mM of non-essential amino acids (Caisson), 1 mM of sodium pyruvate (Invitrogen), and 10 of ml/L penicillin-streptomycin-amphotericin solution (Biological Industries). Human HEK-293T cells were maintained in high-glucose Dulbecco's modified eagle medium (Invitrogen) supplemented with 10% FBS and 3.7 g/L of sodium bicarbonate (Sigma). Both cell lines were cultured at 37° C. and 5% CO2. A 50 mM stock solution of berberine chloride (Sigma-Aldrich) was prepared in dimethyl sulfoxide (DMSO). Cells were treated with 40 μM of berberine chloride or 0.08% DMSO as the control. For induction of lipid droplets formation in cultured cells, 200 μM of oleic acid (Sigma-Aldrich) was added into the culture medium for 24 h. Total RNA was extracted using a TRIZOL reagent (Invitrogen) according to the manufacturer's protocol. The total RNA quantity was measured using a NanoDrop ND-1000 spectrophotometer (Nanodrop Technologies). The total RNA quality and integrity were assayed using an Agilent 2100 bioanalyzer with an RNA 6000 nano kit (Agilent Technologies). […] The microRNA expression levels were normalized to RNU6B levels.
For orientation: In qPCR the cycle at which signal appears reflects the starting amount.

For series [2], the system named is miR-21-5p. Description: qRT-PCR microRNA assay in HepG2 cells. Conditions: HepG2, 40 μM berberine. On the procedure:
as §1

For series [3], the system named is MAT2A 3′ UTR. Description: Dual luciferase reporter assay in HEK 293T cells. On the procedure: (§2) Full-length 3′ UTRs of MAT2A and MAT2B were amplified from the genomic DNA of HepG2 cells through PCR.
(§3) The PCR products were then cloned into the pMIR-REPORT Luciferase miRNA Expression Reporter Vector (Invitrogen), and all inserted sequences in the 3′ UTR constructs were checked using the ABI PRISM DNA sequencer.
(§4) The mutagenesis of the target sequences of hsa-miR-21-3p in MAT2A and MAT2B 3′ UTRs was performed using the QuikChange site-directed mutagenesis kit (Agilent) according to the manufacturer's standard protocol.
(§5) All mutated sequences, including Site 1, Site 2 and the double mutation of the MAT2A and the 3′ UTR mutant construct of MAT2B, were checked through DNA sequencing.
(§6) The HEK-293T and HepG2 cells were seeded at a density of 5×10^4 cells per well in a 24-well culture plate the day before transfection. The HEK-293T and HepG2 cells were tri-transfected with (1) any one of the above-mentioned pMIR-REPORT-3′ UTR construction (300 ng), (2) the control Renilla luciferase reporter plasmid pRL-TK from Promega (10 ng), and (3) 50 nM of hsa-miR-21-3p mimic or negative-control mimic by using the Lipofectamine 2000 transfection reagent (Invitrogen) according to the manufacturer's instructions. Luciferase assays were performed after transfection for 48 h by using the Dual Luciferase reporter assay kit (Promega) and the Paradigm detection platform (Beckman) according to the manufacturer's protocol. The firefly luciferase activity was normalized relative to the Renilla luciferase activity.

For series [4], the system named is MAT2B 3′ UTR. Nature of the series: Dual luciferase reporter assay in HEK 293T cells. On the procedure: as §2, §3, §4, §5, §6
(In general: Reporter assays use an easily measured gene product as a stand-in for the process of interest.)

The subject of series [5] is intracellular malonyl-CoA. Nature of the series: Measurement of intracellular malonyl-CoA concentration in PHH cells. The following applies: 72-h mimic transfection. As to the method:
After transfection with 50 nM of miR-21-3p mimic or the negative-control mimic for 72 h, the PHH cells and HepG2 cells were trypsinized. The intracellular malonyl-CoA concentration was measured using the malonyl-CoA ELISA Kit (MyBioSource) according to the manufacturer's instructions.

Series [6] concerns exon 23 of ACACB. Nature of the series: Reporter examination of miR-21-3p and ACACB (technology similar to Example 6). As to the method: as §6
Where [7] appears, read: wild-type 3′ UTR, 50 nM mimic, 48 h.

For `COc1ccc2cc3[n+](cc2c1OC)CCc1cc2c(cc1-3)OCO2` [berberine], the “miR-21-3p level increase (qRT-PCR)” value in series [1] (1 h vs untreated control) worked out at 2.1 fold; in series [1] (2 h (peak) vs untreated control), 3.5 fold; in series [1] (8 h vs untreated control), 2.8 fold. The “miR-21-5p level increase (qRT-PCR)” value in series [2] (2 h) was 2 fold. Also, in series [2] (4 h and 8 h), the “miR-21-5p expression change (qRT-PCR)” value is reported as “no significant differences”.
Take “hsa-miR-21-3p (CAACACCAGUCGAUGGGCUGU; listed as RNA, chemistry not given here) [miR-21-3p mimic]”: the “luciferase reporter expression decrease, Site 1 mutated MAT2A 3′ UTR” value in series [3] (Site 1 (+180-200) mutated) was 1.5 fold. Also, in series [3] (setting [7]), the “luciferase reporter expression decrease, MAT2A 3′ UTR” value is 1.6 fold. For the same compound, the “luciferase reporter expression change, mutated MAT2B 3′ UTR” value in series [4] (seed match (+399-418) mutated) is given as “remained unchanged”. Moreover, the “luciferase reporter expression decrease, MAT2B 3′ UTR” value in series [4] (setting [7]) turned out to be 2.3 fold. Moreover, the “intracellular malonyl-CoA concentration decrease” value in series [5] is 2.2 fold. Further, the “suppression of ACACB expression by binding exon 23” value in series [6] is 1.4 fold.
